This is an account of results in patent publication US6814968B1, “Inhibition of viral infection and spread with viral and RhoA-derived peptides” (priority 1998, dated 2004).

The test system of experiment [1] is RSV. Nature of the experiment: RSV plaque inhibition assay: peptide pre-incubated with RSV, added to HEp-2 cells. To be noted: 3 days; for plaque formation: peptide 5 mg/ml and 10 mg/ml incubated 1 h with RSV, vs PBS controls. The class given is cell-based, respiratory syncytial virus (A2 strain).
In experiment [2] the test system is RSV. The experiment can be described thus: Cell-to-cell spread / syncytium formation of RSV in HEp-2 monolayers, peptide added to cells. In kind it is cell-based, respiratory syncytial virus.
In experiment [3] the test system is RSV. The experiment can be described thus: RSV infection of BALB/c mice, intranasal peptide treatment. The class given is in vivo.
Experiment [4] concerns parainfluenza virus 3 (PIV3). The experiment can be described thus: Syncytium formation by parainfluenza virus 3 in HEp-2 cells. In kind it is cell-based. How it is done: RhoA77-95 was also added to HEp-2 cells in conjunction with parainfluenza virus 3 (PIV3) as infectious agent, as well as MT-2 cells, in conjunction with human immunodeficiency virus 1 (HIV-1) as infectious agent. Both viruses are known to cause the formation of syncytia during infection.

The subject of the next experiment is HIV. The experiment can be described thus: MAGI cell assay of HIV entry. The settings on record: β-galactosidase activity as endpoint. In kind it is cell-based.
Experiment [5] relates to RSV. In kind it is cell-based, respiratory syncytial virus. The settings on record: protein added to RSV prior to infection of HEp-2 cells.
[6] abbreviates: 10 amino acid peptides added to HEp-2 cell medium.
[7] abbreviates: 500 μg intranasally at the time of RSV challenge, 10^7 pfu RSV.
Where [8] appears, read: 500 μg intranasally on day 4 after RSV infection, vs PBS-treated controls.

Entries after “also recorded” stand apart in the source; their conditions may differ.

As for “RhoA67-85: 19 amino acid peptide comprising RhoA amino acids 67-85 (DRLRPLSYPDTDVILMCFS; UniProt P61586 67-85, looked up, fragment)”, in the experiment with RSV [1], the plaque formation entry was “no inhibition”. For the same substance, in the experiment on HIV-1, the “destruction of infected MT-2 cells” value was “completely destroyed by day 14” and the “syncytium formation by HIV-1” value is reported as “visible syncytia by day 4”.
As for “RhoA77-86: 10 amino acid peptide, RhoA residues 77-86 (TDVILMCFSI; UniProt P61586 77-86, looked up, fragment)”, the syncytium formation result in the experiment on RSV [2] (setting [6]) is reported as “did not block”.
Turning to “RhoA77-95: 19 amino acid peptide comprising the sequence of amino acids 77-95 of the RhoA protein (TDVILMCFSIDSPDSLENI; UniProt P61586 77-95, looked up, fragment)”, the “antigen-positive cells by immunoperoxidase staining” value in the experiment with RSV [1] (RSV-specific antibody) was “no antigen-positive cells were found”. For the same substance, in the experiment with RSV [1], the plaque formation entry is reported as “completely blocked; also recorded: inhibited; also recorded: inhibit plaque formation”. Moreover, the syncytia formation result in the experiment on RSV [2] (peptide 5 mg/ml added 20 or 24 hours post-adsorption, HEp-2, evaluated after three days) was “inhibited syncytia formation”. The “number of virus infected cells” value with RSV [2] (peptide 5 mg/ml added 4 hours after RSV adsorption, HEp-2, evaluated after three days) is “reduced the number of virus infected cells and limited infection to single cells”. Also, in the experiment on RSV [2] (peptide added after RSV adsorption, HEp-2), the “cell-to-cell spread of RSV” value is “inhibited”. Also, in the experiment with RSV [3] (setting [7]), the illness result is given as “no discernable illness” and the weight loss entry is “no discernable illness or weight loss”. Further, in the experiment on RSV [3] (setting [8]), the signs of illness result is listed as “markedly diminished” and the weight loss entry is on record as “slight reduction”. The “inhibition of RSV in vivo” value with RSV [3] (administered to mice) is on record as “inhibited RSV in vivo”. The “Day 5 RSV Titer (Log10 pfu/gram lung ± S.D.)” value with RSV [3] (peptide treatment on day 0 (time of challenge), lung plaque assay) is listed as 3.7 ± 0.3 Log10 pfu/gram lung. In addition, the “Day 5 RSV Titer (Log10 pfu/gram lung ± S.D.)” value in the experiment with RSV [3] (peptide treatment on day 4, lung plaque assay) is given as 4.7 ± 0.3 Log10 pfu/gram lung. The “decrease of RSV titers in lung” value in the experiment on RSV [3] (treatment at the time of infection, day 5 lungs) is recorded as “over 100 fold”. Besides, the “reduction of RSV titers in lung” value in the experiment on RSV [3] (treatment on day 4, day 5 lungs) is listed as “more than 10 fold”. The “syncytium formation by PIV3” value in experiment [4] was “inhibited”. The “HIV virus entry into cells” value with HIV is given as “Inhibition”. Further, in the experiment with HIV-1, the “HIV-1 replication (RT and p24 assays)” value is listed as “inhibited”; the “HIV-1 virus entry into / infection of MT-2 cells” value is on record as “inhibited”; the “reverse transcriptase activity in culture supernatants” value is reported as “undetectable”.
Take “RhoA80-89: 10 amino acid peptide comprising amino acid residues 80-89 of the RhoA protein sequence (ILMCFSIDSP; UniProt P61586 80-89, looked up, fragment)”: the “RSV entry into HEp-2 cells” value in the experiment with RSV [2] (setting [6]) was “completely blocked”.
Turning to “RhoA83-92: 10 amino acid peptide, RhoA residues 83-92 (CFSIDSPDSL; UniProt P61586 83-92, looked up, fragment)”, the syncytium formation entry with RSV [2] (setting [6]) was “did not block”.
Consider “RhoA87-105: 19 amino acid peptide comprising RhoA amino acids 87-105 (DSPDSLENIPEKWTPEVKH; UniProt P61586 87-105, looked up, fragment)”, for which the plaque formation result with RSV [1] is “no inhibition”. In addition, in the experiment with HIV-1, the “destruction of infected MT-2 cells” value was “completely destroyed by day 14” and the “syncytium formation by HIV-1” value is “visible syncytia by day 4”.
Take “whole RhoA protein: whole RhoA protein, 193 amino acid small GTP-binding protein”: the “number and size of plaques” value with RSV [5] is listed as “increased”.
